Laboratory results reported in US8450373B2, “Alpha ketoamide compounds as cysteine protease inhibitors” (Virobay, Inc., priority 2005, dated 2013).

melting point: 152.5 to 153.5 °C
SMILES: CC[C@H](NC(=O)[C@H](CCS(C)(=O)=O)N[C@@H](c1ccc(F)cc1)C(F)(F)F)C(=O)C(=O)NC1CC1 [Table I Cpd. 78, N-cyclopropyl-3S-{4-methanesulfonyl-2S-[2,2,2-trifluoro-1S-(4-fluoro-phenyl)-ethylamino]-butyrylamino}-2-oxo-pentanamide]
